Assays:
[1] = test system: HSP90 and HSP70; assay: Western blotting of AR molecular chaperones; format: cell-based, human; settings: LNCaP and 22RV1, 12 hours
Description: Cells were lysed and AR, HSP90 and HSP70 protein levels were measured by Western blot analysis.
Lysates were fractionated on polyacrylamide gels and transferred to nitrocellulose. The blots were probed with specific antibodies followed by secondary antibody then membranes were examined using the LI-COR Odyssey infrared imaging system (LI-COR Biotechnology, Lincoln Nebr.). […] The β-actin antibody (1:10000) was purchased from Sigma (St. Louis, Mo.).

[2] = in vivo; design: species or system rat; settings: for T1/2: rats
Description: A simple and sensitive method for the determination of Ailanthonein plasma was developed, using high-performance liquid chromatography-tandem mass spectrometry (HPLC-MS/MS). Brusatol was used as an internal standard. […] The details of this HPLC-MS/MS method and sample preparation are described in our previous study^37.
The statistical analysis was performed by SPSS 22.0 software. The differences between control group and experimental groups were determined by one-way ANOVA. Since treatment and time course was investigated, two-way ANOVA followed by post hoc test was also applied. Data was expressed as mean and standard deviation (s.d.) and P<0.05 was considered significant. Pharmacokinetic parameters were calculated by WinNonlin software version 5.2.1 (Pharsight Corporation, Mountain View, USA) based on noncompartmental analysis.
Sprague-Dawley rats (purchased from Shanghai SLAC laboratory animal Co. Ltd., Shanghai, China) were fasted for 12 h with free access to water prior to the pharmacokinetic study. The rats were randomized into two groups for oral administration (5 mg/kg) and intravenous injection (1 mg/kg). Blood samples were collected from the orbital plexus into heparinized centrifuge tubes at fifteen different time points between 5 min to 36 h for the oral administration group and nine time points between 5 min to 6 h for the intravenous one. The pharmacokinetic parameters were calculated by WinNonlin software version 5.2.1 based on noncompartmental analysis. Oral bioavailability was calculated as F (%)=AUC0-∞(p.o.)/AUC0-∞(i.v.)×Dose (i.v.)/Dose (p.o.).

[3] = test system: CYP2C11, CYP3A1/2 and CYP1A2; settings: mouse, in vivo
Description: FIG. 6A-FIG. 6H. Pharmacokinetic studies of AIL. […] Images show tumors at harvest (30 days after treatment). Scale bar, 1 cm. […] AIL or vehicle control was measured by Western blotting analysis (D) and the livers were photographed and stained with HE (e). Scale bar, the black scale bar is 1 cm (top) and the white scale bar is 50 μm (bottom). […] Scale bar, 1 cm.

[4] = test system: VCaP xenografts; assay: Subcutaneous VCaP xenograft model; format: in vivo, mouse; settings: 10 mg/kg MDV or 2 mg/kg AIL i.p., 32 days
Description: (A-C) 22RV1 (A), LNCaP (B) and Vcap (C) cells were injected with 0.1 ml PBS (22RV1) or Matrigel (LNCaP, Vcap) into the right flank of BALB/c-nude. […] Tumor volume and the mouse body weight were measured once a week. The mice were sacrificed after 28 days (22RV1), 49 days (LNCaP) or 32 days (Vcap) and the tumors from each group of mice were harvested and images were taken. […] Data represent the mean±s.d.
BALB/c-nude mice (6-8 weeks old, male) were purchased from the Sino-British Sippr/BK Lab Animal Co., Ltd (Shanghai, China) and maintained under pathogen-free conditions. The animal use protocol was approved by the Institutional Animal Care and Use Committee of East China Normal University. […] The tumor volume and mouse body weight were measured twice a week. The tumor volume was calculated using the following equation: tumor volume (V)=length×width×width×0.52.
BALB/c-nude mice (6-8 week old, male) were purchased from the Sino-British Sippr/BK Lab Animal Co., Ltd (Shanghai, China) and maintained under pathogen-free conditions. […] The tumor volume and mouse body weight were measured twice a week. The tumor volume was calculated using the following equation: tumor volume (V)=length×width×width×0.52.

[5] = test system: 22RV1-luc orthotopic xenografts; assay: Orthotopic castration resistant prostate cancer model; format: in vivo, mouse; settings: castrated mice, 2 mgkg^−1 AIL or 10 mgkg^−1 MDV i.p. once per day, 28 days
Description: (A,B) The dorsolateral prostate of male BALB/c-nude mice was injected with 1×10^6 22RV1-luc cells in 30 μl matrigel. […] After 28 days, mice were sacrificed and the local tumors were removed and volumes and weight of the tumors were measured (A).
For orthotopic castration resistant prostate cancer xenografts, male BALB/c-nude mice (8-9 weeks of age) were anesthetized using 150 mgkg^−1 2,2,2-tribromethanol plus 350 mgkg^−1 tert-amyl alcohol and then 5×10^5 22RV1-luc cells suspended in 30 μl 50% Matrigel were surgically injected into the dorsolateral prostate lobes. One week after injection, the tumor-bearing mice were castrated and randomly assigned to three groups. […] Prostate tumor growth and local metastasis were monitored weekly using the IVIS Imaging System (Xenogen Corporation, Alameda, Calif.). Images and measurements of bioluminescent signals were acquired and analyzed using LivingImage and Xenogen software^52.

[6] = test system: LNCaP-MDV3100-R cells; assay: SRB cell growth assay, MDV3100-resistant cells; settings: 72 hours, 20 μM BIC, 20 μM MDV, 0.1 μM AIL
Description: Cell growth was determined by SRB assay.
The half maximal inhibitory concentration (IC50) was calculated using GraphPad Prism 5.0 (GraphPad, San Diego, Calif.).

[7] = test system: AR-regulated genes (PSA, TMPRSS2, FKBP5, SLC45A3, NDRG1 mRNA); assay: Quantitative real-time PCR of AR-regulated genes; settings: 22RV1 cells, 10 nM R1881, 10 μM MDV or 0.2 μM AIL, 12 hours
Description: The genes expression was measured byquantitative-PCR.
Total RNA was extracted using TRIzol (Takara, Japan) according to the manufacturer's instructions. 1 μg of total RNA was used for cDNA synthesis using a cDNA reverse transcription kit (Takara, Japan). Real-time PCR was performed in triplicate using gene-specific primers on a Stratagene Mx3005P PCR system (Agilent Technologies) machine. The mRNA expression levels were normalized to β-actin expression or GAPDH.

[8] = test system: LNCaP cells; assay: SRB cell growth assay, androgen-starved cells with R1881; settings: 0.1 nM R1881, 96 hours, 10 μM BIC, 10 μM MDV, 0.1-0.4 μM AIL
[9] = test system: c4-2b; assay: as above; settings: androgen-starved c4-2b, 0.1 nM R1881, 96 hours; 10 μM BIC, 10 μM MDV, 0.1 μM AIL
[10] = test system: 22RV1; assay: as above; settings: androgen-starved 22RV1, 0.1 nM R1881, 96 hours; 10 μM BIC, 10 μM MDV, 0.1 μM AIL
[11] = Sprague-Dawley, rat, in vivo, iv, 1 mg/kg
[12] = Sprague-Dawley, rat, in vivo, po, 5 mg/kg

For `C=CCNC1=C2C[C@@H](C)C[C@H](OC)[C@H](O)[C@@H](C)/C=C(\C)[C@H](OC(N)=O)[C@@H](OC)/C=C\C=C(/C)C(=O)NC(=CC1=O)C2=O` [17-AAG], the “HSP90 and HSP70 protein levels” value [1] was “induced up-regulation of HSP90 and HSP70 protein”.
With `C=C1[C@@H](O)[C@]2(O)OC[C@]34[C@H]2[C@@]2(C)[C@H](O)C(=O)C=C(C)[C@@H]2C[C@H]3OC(=O)C[C@@H]14` [AIL, 11β,20-Epoxy-1β,11,12α-trihydroxypicrasa-3,13(21)-diene-2,16-dione] the “Bioavailability (oral)” value ([2]; Sprague-Dawley, rat, in vivo) was 25.7%, the bioavailability ([2]; Sprague-Dawley, rat, in vivo) was over 20% and the AUC0-t [2, 11] was 57874.3 ± 6871.1 ng·min/mL. The “AUC0-∞” value [2, 11] was 61517.4 ± 5986.2 ng·min/mL, the AUC0-t [2, 12] was 67324.5 ± 7405.3 ng·min/mL and the “AUC0-∞” value [2, 12] was 79053.9 ± 14616.6 ng·min/mL. For the same compound, the “absorption, elimination and distribution after oral administration” value ([2]; rat, in vivo, po) was “absorbed quickly, eliminated rapidly and distributed widely in tissues”, the T1/2 ([2]; i.v. 1 mg kg^−1, mean ± s.d.) was 1.888 ± 0.66 h and the T1/2 ([2]; p.o. 5 mg kg^−1, mean ± s.d.) was 12.17 ± 2.598 h. For the same compound, the “expression of CYP enzymes in liver” value [3] was “did not influence the expression”.
In the case of `CNC(=O)c1ccc(N2C(=S)N(c3ccc(C#N)c(C(F)(F)F)c3)C(=O)C2(C)C)cc1F` [MDV], the “xenograft sensitivity (tumor volume)” value [4] is reported as “still responded”, the “reduction of tumor volume” value [5] is reported as 15% and the “cell growth (SRB)” value [6] is reported as “totally resistant”. For the same compound, the “PSA mRNA level in the presence of R1881” value [7] was “decreased”, the “cell growth (SRB)” value [8] was “effectively blocked cell growth” and the “cell growth (SRB)” value [9] was “could not significantly inhibit cell growth”. The “cell growth (SRB)” value [10] was “could not significantly inhibit cell growth”.
